{"source": "patent US20040121410A1", "about": "“Pain signaling molecules” (priority 2002, published 2004)", "key": {"[1]": {"test_system": "FLRFa-induced calcium release in HEK-MrgA1", "assay": "FLRFa-induced [Ca2+]i response in HEK-MrgA1 with pathway inhibitors", "format": "cell-based, human", "settings": "HEK-MrgA1, 3 μM FLRFa; 10 μM U73122 or U73343 10 min pretreatment; 1 μM TG in 2 mM EGTA", "protocol": "(§1) Cells loaded with Fura-2/AM were stimulated with each agonist and fluorescence was recorded. Graphs represent an average plot of [Ca^2+]i measurements versus time (in s) in a minimum of 8 cells from representative experiments. Individual data points represent images taken at 0.8-s intervals. […] After a 10 minute pretreatment with U73122 and U73343, each agonist was added. FIGS. 2B and E show the extracellular [Ca^2+] dependency of Ca^2+ mobilization. Cells were preincubated for 2 minutes with 2 mM EGTA (open circles) or normal medium containing 1.2 mM calcium (closed circles) and then 3 μM FLRFa or 1 μM γ2-MSH was added. […] In the presence of 2 mM EGRA, TG (1 μM final concentration) was added to deplete internal Ca^2+ stores.\n(§2) The calcium source responsible for the initial peak in [Ca^2+]i was determined by depleting internal calcium stores with the application of 1 μM TG (FIGS. 2C and F).\n(§3) Heterotrimeric G proteins of the Gαi and Gαq class are involved in the propagation of signals from GPCRs leading to [Ca^2+]i elevation (Guderman et al. Ann. Rev. Pharmacol. Toxicol. 36:429-459 (1996)). To determine whether Gαi/o proteins are involved in the [Ca^2+]i response, we pretreated HEK-MrgA1 or HEK-MrgC11 cells with PTX (100 ng/ml) for 16 h. […] The dose dependency in [Ca^2+]i responses for both receptors were not affected by PTX (FIGS. 4A and D)."}, "[2]": {"test_system": "γ2-MSH-induced calcium release in HEK-MrgC11", "assay": "γ2-MSH-induced [Ca2+]i response in HEK-MrgC11 with pathway inhibitors", "format": "cell-based, human", "settings": "HEK-MrgC11, 1 μM γ2-MSH; 10 μM U73122 or U73343 10 min pretreatment; 1 μM TG in 2 mM EGTA", "protocol": "as §1, §2, §3"}}, "data": [{"molecule": "COc1ccc2c(c1)CC[C@@H]1[C@@H]2CC[C@]2(C)[C@@H](NCCCCCCN3C(=O)CCC3=O)CC[C@@H]12", "note": "[U73343]", "values": [{"measurement": "effect on FLRFa-induced calcium response", "setting": "[1]", "value": "did not significantly affect"}, {"measurement": "effect on γ2-MSH-induced calcium response", "setting": "[2]", "value": "did not significantly affect"}]}]}
